{
  "source": "patent US20050159377A1",
  "about": "“Methods of modulating activity of prokaryotic ribosomes” (SmithKline Beecham Corporation, priority 2000, published 2005)",
  "origin": "cited, not measured here",
  "test_system": "50S ribosomal subunit",
  "data": [
    {"smiles": "O=C(N[C@H](CO)[C@H](O)c1ccc([N+](=O)[O-])cc1)C(Cl)Cl", "note": "[chloramphenicol]", "values": [
      {"measurement": "competition with pleuromutilin for binding", "result": "weakly compete"}
    ]}
  ]
}
